Test results published in US20210278391A1, “COMPOSITIONS AND METHODS FOR TREATING CARDIOVASCULAR AND METABOLIC CONDITIONS” (The Regents of the University of California, priority 2017, published 2021).

Tests used:
[1] = system: pressure-overloaded mouse heart; experiment: TAC heart failure model with preexisting dysfunction, BT2 from 2 weeks post-TAC for 6 weeks, echocardiography and survival; type: in vivo
Method: In mice, transverse aortic constriction (TAC) was performed as described (Lee et al. (2011) Circulation Research 109:1332-1341) in anesthetized (pentobarbital 60 mg/kg, IP) and ventilated mice (age 12-14 weeks) to induce hypertrophy and heart failure. After left anterolateral thoracotomy with blunt dissection through the intercostal muscles, aortic constriction was induced by ligating the transverse aorta around a 27½-gauge blunt needle using 6-0 silk suture. The needle was subsequently removed. Sham-operated mice underwent a similar surgical procedure without constriction of the aorta. All mice were maintained in the same environment with regular lab chow and water ad libitum. At the end of the experiments, animals were euthanized and the hearts and lungs were removed and weighed. Hearts were dissected and tissues were either immediately immersed into 4% buffered formaldehyde or quickly frozen in liquid nitrogen for further experiments.

BCKD subunit E1α = experiment: Western blot of phosphorylated E1α and BCKDK in heart post-TAC; type: in vivo, mouse
Method: Proteins from heart tissue were harvested in buffer (50 mM HEPES [pH7.4], 150 mM NaCl, 1% NP-40, 1 mM EDTA, 1 mM EGTA, 1 mM glycerophosphate, 2.5 mM sodium pyrophosphate 1 mM Na3VO4, 20 mM NaF, 1 mM phenylmethylsulfonyl fluoride, 1 μg/mL of aprotinin, leupeptin, and pepstatin). Samples were separated on 4-12% Bis-Tris gels (Invitrogen), and transferred onto a nitrocellulose blot (Amersham). The blot was probed with the indicated primary antibodies. Protein signals were detected using HRP conjugated secondary antibodies and enhanced chemiluminescence (ECL) western blotting detection regents (Pierce). Rabbit polyclonal antisera against the E1α subunits of BCKD complex and phosphor-E1α antibodies were purchased from Abcam. PP2Cm antibody was generated in the lab.

[2] = Plasma BCAA/BCKA in DIO mice treated with BT2; type: in vivo, mouse; conditions: BT2 40 mg/kg/day 8 weeks
Method: (§1) Animals were euthanized using carbon dioxide asphyxiation followed by cervical dislocation and then dissected. Blood was harvested by cardiac puncture and centrifuged to isolate plasma which was stored at −80° C. Acidified citrate dextrose was used as an anticoagulant. Immediately after blood collection, heart, liver, kidneys, and both hind leg quadriceps muscles were removed and snap frozen in liquid nitrogen.
The endogenous signal from blank plasma was subtracted from each point on the standard curve, and the data were plotted in GraphPad Prism. BCAA concentrations in treated samples were determined based on this standard curve.

[3] = system: high fat diet (HFD)-induced obese (DIO) mice; experiment: Glucose and insulin tolerance, plasma insulin in DIO mice treated with BT2; type: in vivo, mouse; conditions: BT2 40 mg/kg/day 8 weeks
Method: as §1
Mice were fasted for 6 hours. For insulin tolerance test, mice were injected (intraperitoneal) with insulin (0.75 U/kg body weight). For glucose tolerance test, mice were injected intraperitoneally with D-glucose (2 g/kg body weight). Experiments were performed between 14:00 and 16:00. Blood was drawn 0, 15, 30, 60, and 120 min after insulin or glucose administration. Blood glucose concentrations were measured through tail bleeding before and at the times indicated after injection. Blood glucose was measured using a portable glucometer (Johnson&Johnson). Plasma insulin and TNFα concentrations were measured by Milliplex Multiplex Immunoassay Kits MMHMAG-44K-14 (Merck Millipore, Darmstadt, Germany).

[4] = system: pressure-overloaded heart; experiment: Transaortic constriction (TAC) pressure overload, BT2 started one week before TAC, echocardiography; type: in vivo, mouse; conditions: 4 weeks after TAC, BT2 40 mg/kg/d oral gavage
Method: PP2Cm germ-line knockout (PP2Cm-KO) mice were generated as previously described (Lu et al. (2009), supra). PP2Cm KO mice were backcrossed for more than 8 generations into a C57BL/6 background. Wild type C57BL/6 mice and PP2Cm KO mice were housed at 22° C. with a 12-hour light, 12-hour dark cycle with free access to water and standard chow. Studies were performed with male mice. Human cohorts of dilated cardiomyopathy and controls were obtained from Columbia and Duke with Institutional Review Board approval. All animal procedures were carried out in accordance with the guidelines and protocols approved by the University of California at Los Angeles Institutional Animal Care and Use Committee (IACUC). Transaortic constriction (TAC) and cardiac echocardiography were performed as reported earlier 17 on mice from different genotypes between 14 and 16 weeks of age. […] Measurements of BCKD activity in mouse cardiac tissue and plasma BCKA/BCAA concentrations were performed as previously described (Tso et al. (2014), supra).
In mice, transverse aortic constriction (TAC) was performed as described (Gao et al. (2016) J Clin Invest. 126:195-206) in anesthetized (pentobarbital 60 mg/kg, IP) and ventilated mice (age 14-16 weeks) to induce hypertrophy and heart failure. […]

BCKD [5] = experiment: BCKD activity in tissues of ob/ob mice treated with BT2; type: in vivo, mouse; conditions: BT2 40 mg/kg/day oral gavage 10 weeks
Method: as §1
(§2) Assays for the BCKD activity were carried out as prescribed previously (Tso et al. (2014), supra). Briefly, frozen tissues were thawed and homogenized in a homogenizing buffer (30 mM KPi, pH 7.5, 3 mM EDTA, 5 mM DTT, 1 mM KIC, 3% fetal bovine serum, 5% Triton X-100, and 1 μM leupeptin). Samples were spun at 25,000×g and supernatants were collected. Diluted samples were placed in 24-well assay plates with assay buffer (30 mMKPi, pH7.5, 0.4 mM CoA, 3 mM NAD, 5% fetal bovine serum, 2 mM thiamine diphosphate, 2 mM MgCl2, and 65 μg of human E3). Keto [1-^14C] isovalerate substrate was added and assay plates were incubated at 37° C. for 30 min. 20% TCA solution was added to stop the reactions. Assay plates were incubated further at 37° C. for 45 min. ^14CO2 trapped on 2 M NaOH soaked filter wicks was counted in a liquid scintillation counter.

BCKD [6] = experiment: BCKD activity in tissues of high-fat-diet-induced obese (DIO) mice treated with BT2; type: in vivo, mouse; conditions: BT2 40 mg/kg/day 8 weeks oral gavage
Method: as §1, §2

[7] = after 5 weeks post-TAC (3 weeks post-treatment), speckle tracking
[8] = by 2 weeks of BT2 treatment (4 weeks post-TAC)

## O=C(O)c1sc2cc(Cl)ccc2c1Cl [BT2, 3,6-dichlorobenzo[b]thiophene-2-carboxylic acid]
[1]; 5 weeks post-TAC
  longitudinal early diastolic strain rate (SRe): remarkably improved
[1]; BT2 treated mouse hearts post-TAC
  chamber size (ΔLVIDs, ΔLV Vols): stable maintenance
[1]; [7]
  myocardial strain: significantly improved
  myocardial strain rate: significantly improved
[1]; [8]
  increase of EF from baseline (week 2): 6.0±3.4 points
  increase of FS from baseline (week 2): 3.5±1.9 points
[1]; continuation of BT2 for additional 4 weeks
  systolic dysfunction: additional alleviations
[1]; during the treatment period
  beneficial effect on SRe at radial circumferential planes: dispersity
[1]; from two weeks after treatment
  mouse survival: improved
[1]; post-TAC
  systolic velocity and displacement in longitudinal and radial planes: increase
[1]; pressure-overloaded mouse heart, six weeks treatment
  systolic function: preserved
[1]; six weeks treatment
  pressure-overload-induced cardiac structural remodeling: alleviated
BCKD subunit E1α; intragastric, six weeks
  cardiac BCAA catabolic activities post-TAC: enhanced
BCKD subunit E1α; post-TAC heart, BT2 40 mg/kg/day 6 weeks vs vehicle
  BCKDK mediated E1α phosphorylation: significantly reduced
BCKD subunit E1α; post-TAC heart, BT2 vs vehicle
  BCKDK protein expression: insignificant effect
[2]
  plasma BCAA/BCKA levels: lowers
[3]
  glucose tolerance: improved
  hyperinsulinemia: improved
  insulin sensitivity: improved
[4]
  chamber dilation: reduced
  left ventricular ejection fraction: significantly preserved
BCKD [5]
  BCKD activity in different tissues including white adipose tissues: significantly enhanced
BCKD [6]
  BCKD activity in heart, muscle liver and kidney: augments
